Among the data in US20260374756A1, “HETEROCYCLIC COMPOUNDS AS INHIBITORS OF MONOACYLGLYCEROL LIPASE (MAGL)” (Hoffmann-La Roche Inc., priority 2022, published 2026) are IC50 values, retold here.

The term IC50 denotes the midpoint of a concentration-inhibition curve. Read a high IC50 as lower potency.

The target of the assay is T1, hMAGL (Homo sapiens, UniProt Q99685).
T1 sequence (Q99685 1-303): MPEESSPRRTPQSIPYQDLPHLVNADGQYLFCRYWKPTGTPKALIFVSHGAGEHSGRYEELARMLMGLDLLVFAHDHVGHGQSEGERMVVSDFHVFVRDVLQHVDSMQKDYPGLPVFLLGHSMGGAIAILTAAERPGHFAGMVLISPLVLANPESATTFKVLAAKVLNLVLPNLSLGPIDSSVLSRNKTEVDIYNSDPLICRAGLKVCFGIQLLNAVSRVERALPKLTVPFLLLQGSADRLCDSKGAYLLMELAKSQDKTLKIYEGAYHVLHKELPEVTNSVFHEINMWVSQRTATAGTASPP
Put plainly: 2-AG assay: MAGL inhibition, hydrolysis of 2-arachidonoylglycerol to arachidonic acid followed by mass spectrometry. The assay is classed as biochemical. The procedure, abridged: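 MAGL preincubated with compound 15 min at RT in 50 mM Tris, 1 mM EDTA, 0.01% Tween-20, 2.5% DMSO; reaction started with 8 μM 2-AG (final), […], 30 min at RT. Quenched with acetonitrile containing d8-arachidonic acid; arachidonic acid quantified by RapidFire SPE-triple quad MS as arachidonic acid/d8 ratio.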
As for `O=C(N1CC2(CC(n3cnc(C4(O)CC4)n3)C2)C1)N1CC2(CN(Cc3cc(C(F)(F)F)ns3)C2)C1` [Example 152, [6-[3-(1-hydroxycyclopropyl)-1,2,4-triazol-1-yl]-2-azaspiro[3.3]heptan-2-yl]-[6-[[3-(trifluoromethyl)isothiazol-5-yl]methyl]-2,6-diazaspiro[3.3]heptan-2-yl]methanone], the IC50 amounted to 161 nM.

Regarding `O=C(N1CC2(CC(Cn3cc(CC(F)(F)F)cn3)C2)C1)N1CC2(CC(n3cnc(C4(O)CC4)n3)C2)C1` [Example 144, [6-[3-(1-hydroxycyclopropyl)-1,2,4-triazol-1-yl]-2-azaspiro[3.3]heptan-2-yl]-[6-[[4-(2,2,2-trifluoroethyl)pyrazol-1-yl]methyl]-2-azaspiro[3.3]heptan-2-yl]methanone], half-maximal inhibition (IC50) required 6.75 nM.

In turn, `Cn1cc(OC2CC3(C2)CN(C(=O)N2CC4(CC(n5cnc(C6(O)CC6)n5)C4)C2)C3)c(C(F)(F)F)n1` [Example 59, [6-[3-(1-hydroxycyclopropyl)-1,2,4-triazol-1-yl]-2-azaspiro[3.3]heptan-2-yl]-[6-[1-methyl-3-(trifluoromethyl)pyrazol-4-yl]oxy-2-azaspiro[3.3]heptan-2-yl]methanone] came in with an IC50 of 55.4 nM.

As to `Cc1cc(C(F)F)n(CC2CC3(C2)CN(C(=O)N2CC4(CC(n5cnc(C6CC6)n5)C4)C2)C3)n1` [Example 92], the IC50 was 0.21 nM.

`O=C(N1CC2(CC(Cc3nc(CC(F)(F)F)n[nH]3)C2)C1)N1CC2(CC(n3cnc(C(F)(F)F)n3)C2)C1` [Example 204, [6-[[3-(2,2,2-trifluoroethyl)-1H-1,2,4-triazol-5-yl]methyl]-2-azaspiro[3.3]heptan-2-yl]-[6-[3-(trifluoromethyl)-1,2,4-triazol-1-yl]-2-azaspiro[3.3]heptan-2-yl]methanone] registered an IC50 of 25.8 nM.

In turn, `O=C(N1CC2(CC(n3cnc(C4CC4)n3)C2)C1)N1CC2(CN(Cc3nc(C4CC4)ns3)C2)C1` [Example 44, [6-[(3-cyclopropyl-1,2,4-thiadiazol-5-yl)methyl]-2,6-diazaspiro[3.3]heptan-2-yl]-[6-(3-cyclopropyl-1,2,4-triazol-1-yl)-2-azaspiro[3.3]heptan-2-yl]methanone] displayed an IC50 of 5.42 nM.

With `Cn1ncc(C(F)(F)F)c1CN1CCC2(CC1)CN(C(=O)N1CC3(CC(n4cnc(C5CC5)n4)C3)C1)C2` [Example 66, [6-(3-cyclopropyl-1,2,4-triazol-1-yl)-2-azaspiro[3.3]heptan-2-yl]-[7-[[2-methyl-4-(trifluoromethyl)pyrazol-3-yl]methyl]-2,7-diazaspiro[3.5]nonan-2-yl]methanone], the midpoint of inhibition, the IC50, lay at 0.41 nM.

`O=C(N1CC2(CC(n3cnc(C4(O)CC4)n3)C2)C1)N1CC2(CN(Cc3cnc(C(F)(F)F)s3)C2)C1` [Example 19] registered an IC50 of 34.5 nM.

In turn, `Cn1nc(C(F)(F)F)cc1CN1CCC2(CC1)CN(C(=O)N1CC3(CC(n4cnc(C5CC5)n4)C3)C1)C2` [Example 26, [6-(3-cyclopropyl-1,2,4-triazol-1-yl)-2-azaspiro[3.3]heptan-2-yl]-[7-[[2-methyl-5-(trifluoromethyl)pyrazol-3-yl]methyl]-2,7-diazaspiro[3.5]nonan-2-yl]methanone] gave an IC50 of 3.42 nM.

For `O=C(N1CC2(CC(n3cnc(C(F)(F)F)n3)C2)C1)N1CC2(CN(Cc3cc(C(F)(F)F)no3)C2)C1` [Example 183, [6-[[3-(trifluoromethyl)isoxazol-5-yl]methyl]-2,6-diazaspiro[3.3]heptan-2-yl]-[6-[3-(trifluoromethyl)-1,2,4-triazol-1-yl]-2-azaspiro[3.3]heptan-2-yl]methanone], the IC50 is 28.4 nM.

Consider `O=C(N1CC2(CC(Cn3cnc(C(F)(F)F)n3)C2)C1)N1CC2(CC(n3cnc(C4CC4)n3)C2)C1` [Example 127, [6-(3-cyclopropyl-1,2,4-triazol-1-yl)-2-azaspiro[3.3]heptan-2-yl]-[6-[[3-(trifluoromethyl)-1,2,4-triazol-1-yl]methyl]-2-azaspiro[3.3]heptan-2-yl]methanone], for which the IC50 was 1.06 nM.

`CS(=O)(=O)c1cnn(CC2CC3(C2)CN(C(=O)N2CC4(CC(n5cnc(C6CC6)n5)C4)C2)C3)c1` [Example 332, [6-(3-cyclopropyl-1,2,4-triazol-1-yl)-2-azaspiro[3.3]heptan-2-yl]-[6-[(4-mesylpyrazol-1-yl)methyl]-2-azaspiro[3.3]heptan-2-yl]methanone] yielded an IC50 of 11.5 nM.

`Cc1c(CN2CC3(C2)CN(C(=O)N2CC4(CC(n5cnc(C6CC6)n5)C4)C2)C3)cnn1CC(F)(F)F` [Example 115, [6-(3-cyclopropyl-1,2,4-triazol-1-yl)-2-azaspiro[3.3]heptan-2-yl]-[6-[[5-methyl-1-(2,2,2-trifluoroethyl)pyrazol-4-yl]methyl]-2,6-diazaspiro[3.3]heptan-2-yl]methanone] showed an IC50 of 38.2 nM.

Consider `O=C(N1CC2(CC(n3cnc(C4(O)CC4)n3)C2)C1)N1CC2(CN(Cc3nc(C(F)(F)F)cs3)C2)C1` [Example 52], for which the midpoint of inhibition, the IC50, lay at 138 nM.

The molecule `Cn1ncc(C(F)(F)F)c1CN1CC2(C1)CN(C(=O)N1CC3(CC(n4cnc(C5CC5)n4)C3)C1)C2` [Example 159, [6-(3-cyclopropyl-1,2,4-triazol-1-yl)-2-azaspiro[3.3]heptan-2-yl]-[6-[[2-methyl-4-(trifluoromethyl)pyrazol-3-yl]methyl]-2,6-diazaspiro[3.3]heptan-2-yl]methanone] showed an IC50 of 2.2 nM.

`O=C(N1CC2(CC(Cn3ncnc3C(F)(F)F)C2)C1)N1CC2(CC(n3cnc(C(F)(F)F)n3)C2)C1` [Example 333, [6-[3-(trifluoromethyl)-1,2,4-triazol-1-yl]-2-azaspiro[3.3]heptan-2-yl]-[6-[[5-(trifluoromethyl)-1,2,4-triazol-1-yl]methyl]-2-azaspiro[3.3]heptan-2-yl]methanone]: half-maximal inhibition (IC50) was put at 10.3 nM.

Molecule `O=C(N1CC2(CC(n3cnc(C4CC4)n3)C2)C1)N1CC2(CN(Cc3nc(C4(C(F)(F)F)CC4)no3)C2)C1` [Example 338, [6-(3-cyclopropyl-1,2,4-triazol-1-yl)-2-azaspiro[3.3]heptan-2-yl]-[6-[[3-[1-(trifluoromethyl)cyclopropyl]-1,2,4-oxadiazol-5-yl]methyl]-2,6-diazaspiro[3.3]heptan-2-yl]methanone] had an IC50 of 4.03 nM.

With `CC(F)(F)c1noc(CN2CC3(C2)CN(C(=O)N2CC4(CC(n5cnc(C(F)(F)F)n5)C4)C2)C3)n1` [Example 258, [6-[[3-(1,1-difluoroethyl)-1,2,4-oxadiazol-5-yl]methyl]-2,6-diazaspiro[3.3]heptan-2-yl]-[6-[3-(trifluoromethyl)-1,2,4-triazol-1-yl]-2-azaspiro[3.3]heptan-2-yl]methanone], 53 nM corresponded to half-maximal inhibition (IC50).

In the case of `O=C(N1CC2(CC(Cc3cnn(CC(F)(F)F)n3)C2)C1)N1CC2(CC(n3cnc(C4(O)CC4)n3)C2)C1` [Example 202, [6-[3-(1-hydroxycyclopropyl)-1,2,4-triazol-1-yl]-2-azaspiro[3.3]heptan-2-yl]-[6-[[2-(2,2,2-trifluoroethyl)triazol-4-yl]methyl]-2-azaspiro[3.3]heptan-2-yl]methanone], the IC50 was 12.5 nM.

For the molecule `O=C(N1CC2(CC(n3cnc(C4CC4)n3)C2)C1)N1CC2(CN(Cc3nc(C(F)(F)F)n[nH]3)C2)C1` [Example 230, [6-(3-cyclopropyl-1,2,4-triazol-1-yl)-2-azaspiro[3.3]heptan-2-yl]-[6-[[3-(trifluoromethyl)-1H-1,2,4-triazol-5-yl]methyl]-2,6-diazaspiro[3.3]heptan-2-yl]methanone], the IC50 is 672 nM.

Consider `Cn1nnc(CN2CC3(C2)CN(C(=O)N2CC4(CC(n5cnc(C(F)(F)F)n5)C4)C2)C3)c1C(F)(F)F` [Example 243, [6-[[1-methyl-5-(trifluoromethyl)triazol-4-yl]methyl]-2,6-diazaspiro[3.3]heptan-2-yl]-[6-[3-(trifluoromethyl)-1,2,4-triazol-1-yl]-2-azaspiro[3.3]heptan-2-yl]methanone], for which the IC50 amounted to 96.5 nM.

As for `O=C(N1CC2(CC(Cn3cnc(C(F)(F)F)c3)C2)C1)N1CC2(CC(c3cc(C4CC4)n[nH]3)C2)C1` [Example 39, [6-(3-cyclopropyl-1H-pyrazol-5-yl)-2-azaspiro[3.3]heptan-2-yl]-[6-[[4-(trifluoromethyl)imidazol-1-yl]methyl]-2-azaspiro[3.3]heptan-2-yl]methanone], the IC50 worked out at 1.56 nM.

On to `O=C(N1CC2(CCN(Cc3nc(C(F)(F)F)cs3)CC2)C1)N1CC2(CC(n3cnc(C4CC4)n3)C2)C1` [Example 177, [6-(3-cyclopropyl-1,2,4-triazol-1-yl)-2-azaspiro[3.3]heptan-2-yl]-[7-[[4-(trifluoromethyl)thiazol-2-yl]methyl]-2,7-diazaspiro[3.5]nonan-2-yl]methanone], for which it took 9.83 nM to reach half-maximal inhibition (IC50).

`O=C(N1CC2(CC(Cc3n[nH]c(C(F)(F)F)n3)C2)C1)N1CC2(CC(n3cnc(C(F)(F)F)n3)C2)C1` [Example 9, [6-[3-(trifluoromethyl)-1,2,4-triazol-1-yl]-2-azaspiro[3.3]heptan-2-yl]-[6-[[5-(trifluoromethyl)-1H-1,2,4-triazol-3-yl]methyl]-2-azaspiro[3.3]heptan-2-yl]methanone]: the IC50 came to 7.07 nM.

With `Cc1cc(C2CC2)n(CC2CC3(C2)CN(C(=O)N2CC4(CC(n5cnc(C(F)(F)F)n5)C4)C2)C3)n1` [Example 131, [6-[(5-cyclopropyl-3-methyl-pyrazol-1-yl)methyl]-2-azaspiro[3.3]heptan-2-yl]-[6-[3-(trifluoromethyl)-1,2,4-triazol-1-yl]-2-azaspiro[3.3]heptan-2-yl]methanone], the IC50 was determined as 1.08 nM.
